Structures are written as SMILES.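 Method: 48-hour compound exposure of cells in 96-well plates, five concentrations, linear interpolation of endpoints. The concentration for 50% growth inhibition is given as GI50.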 Activity calls are given as the source filed them. Rule as the data show it: active = GI50 up to about 1.1 µM and inactive = higher.

Among the test systems are Hs-578T; MDA-MB-231; MDA-N; BT-549.
What all share (assay): NCI anticancer screen, dose series, 48 h

As for `CCOc1ccccc1-c1nc2c(s1)C(=O)c1ccccc1C2=O`, the GI50 in the assay with Hs-578T is 19 µM (inactive); with MDA-MB-231 it was 2.84 µM (inactive); in the assay on MDA-N, 2.72 µM (inactive).

As to `O=C(/C=C1\Nc2ccc([N+](=O)[O-])cc2N=C1NC12CC3CC(CC(C3)C1)C2)c1ccccc1`, the GI50 in the assay with Hs-578T is 3.76 µM (inactive); in the assay with MDA-MB-231, 4.7 µM (inactive); with MDA-N, > 10 µM (inactive).

For the molecule `CSc1nc2c(c(=O)[nH]1)N=C(c1ccccc1)CC(c1ccccc1)N2` (stereo unspecified), the GI50 is 28.5 µM (inactive) with BT-549, 18.5 µM (inactive) in the assay on MDA-MB-231 and 20.7 µM (inactive) with MDA-N.

Turning to `CC(C)/C(Cl)=N\OC(=O)Nc1cccc(Cl)c1`, the figures for the GI50 in the assay on Hs-578T, in the assay with MDA-MB-231 and in the assay with MDA-N were 28.3 µM (inactive), 15.2 µM (inactive) and 14.8 µM (inactive), respectively.

With `O=C(/C=C\c1ccccc1-c1ccccc1)c1ccccc1`, the figures for the GI50 in the assay with Hs-578T, in the assay with MDA-MB-231 and in the assay with MDA-N were > 100 µM (inactive), 12.2 µM (inactive) and > 100 µM (inactive), respectively.

Regarding `O=C(Nc1ccc(Cl)cc1)c1cc(S(=O)(=O)Nc2n[nH]c(=O)[nH]2)c(SSc2cc(Cl)c(C(=O)Nc3ccc(Cl)cc3)cc2S(=O)(=O)Nc2n[nH]c(=O)[nH]2)cc1Cl`, the GI50 in the assay on BT-549, in the assay with Hs-578T, in the assay with MDA-MB-231 and in the assay on MDA-N was > 100 µM (inactive) each time.

Turning to `c1csc(-c2sc(-c3ccsc3)cc2Cc2ccsc2)c1`, the GI50 with MDA-MB-231 and with MDA-N was > 10 µM (inactive) each time.

`O=C1/C(=C/c2ccco2)NC(=S)N1CN1CCCCC1`: the GI50 in the assay with Hs-578T is 83.6 µM (inactive); in the assay on MDA-MB-231, > 100 µM (inactive); with MDA-N, > 100 µM (inactive).

Consider `Cn1c(=O)c2c(ncn2Cc2ccc(O)c([N+](=O)[O-])c2)n(C)c1=O`, for which the GI50 with BT-549, in the assay on Hs-578T, in the assay on MDA-MB-231 and with MDA-N was > 100 µM (inactive) in each case.

On to `COc1ccc(/C=N/N=C(\N)NO)c(OC)c1OC`, for which the GI50 was > 100 µM (inactive) in the assay with Hs-578T, 65.2 µM (inactive) with MDA-MB-231 and 66.5 µM (inactive) in the assay on MDA-N.

For the molecule `O=CNCCCN1CCN(CCCNC=O)CC1`, the GI50 in the assay with BT-549, in the assay with MDA-MB-231 and with MDA-N was > 100 µM (inactive) in each case.

In the case of `N#CC1=C(N)N2C(=O)/C(=C/c3ccccc3O)N=C2S1`, the GI50 in the assay on Hs-578T is 31.3 µM (inactive); with MDA-MB-231 it was > 100 µM (inactive); in the assay on MDA-N it was 86.3 µM (inactive).

For `O=C(NN=C1CCN(Cc2ccccc2)CC1)C(O)(c1ccccc1)c1ccccc1`, the GI50 in the assay on Hs-578T and with MDA-MB-231 was > 100 µM (inactive) in each case.

As to `CCC1(c2ccc(OC)c(OC)c2)CCN2C(=O)C(O)CC21` (stereo unspecified), the GI50 in the assay on BT-549, with MDA-MB-231 and in the assay on MDA-N was > 100 µM (inactive) each time.

Consider `CSC(=S)Nc1cc(C)ccn1`, for which the GI50 in the assay with Hs-578T is > 100 µM (inactive); in the assay on MDA-MB-231, 33.1 µM (inactive); in the assay on MDA-N it was > 100 µM (inactive).

Turning to `CC(=O)NC(Cc1ccc(OP(=O)(OCc2ccc([N+](=O)[O-])o2)N(C)CCCCCl)cc1)C(=O)NC(C)c1ccc(OCC2CCCCC2)c(C(N)=O)c1` (stereo unspecified), the GI50 in the assay with Hs-578T is 2.14 µM (inactive); in the assay with MDA-MB-231, 2.05 µM (inactive); in the assay with MDA-N it was 2.24 µM (inactive).

`COC(=O)[C@@H]1CC(C(C[N+](=O)[O-])c2ccc(O[Si](C)(C)C(C)(C)C)cc2)C(=O)N1C(=O)OC(C)(C)C` (stereo partly specified): the GI50 with Hs-578T, in the assay with MDA-MB-231 and in the assay on MDA-N was > 100 µM (inactive) each time.

Turning to `CCC(CCCCC1CC[C@H]2CC(=O)C[C@@H]12)OC` (stereo partly specified), the GI50 with BT-549 and with MDA-MB-231 was > 100 µM (inactive) each time.

Take `CN(C)Cc1cc(C(=O)/C=C/c2ccc(Cl)cc2Cl)cc(CN(C)C)c1O`: the GI50 with Hs-578T was 3.82 µM (inactive); with MDA-MB-231 it was 2.11 µM (inactive); in the assay with MDA-N it was 1.88 µM (inactive).

(Values after ChEMBL document CHEMBL1201862, “PubChem BioAssay data set” (2004).)
